Measured values published in patent US20090246281A1, “Soft steroid compositions for use in dry powder inhalers” (Norton Healthcare Ltd., priority 2003, published 2009).

Experiment: Stability of EDA dry mix versus EDA solutions in solvents
Format: physicochemical
Source text: In comparison, solutions prepared by dissolving 2 wt % EDA in a) pure methanol, b) pure ethanol, c) methanol+10 wt % water (pH 4.5) and d) ethanol+10% water (pH 4.5), were stable for 2 days, 2 days, 4 days and 4 days, respectively.

CCOC(=O)[C@@]1(OC(=O)C(Cl)Cl)CCC2C3CCC4=CC(=O)C=CC4(C)C3C(O)CC21C (stereo partly drawn) [EDA, ethyl 17α-dichloroacetoxy-11β-hydroxyandrosta-1,4-dien-3-one-17β-carboxylate]
Time stable in solution (2 wt % EDA in ethanol+10% water (pH 4.5)): 4 days | Time stable in solution (2 wt % EDA in methanol+10 wt % water (pH 4.5)): 4 days | Time stable in solution (2 wt % EDA in pure ethanol): 2 days | Time stable in solution (2 wt % EDA in pure methanol): 2 days
